In patent publication US9718823B2, “2, 6-Di-nitrogen-containing substituted purine derivative, and preparation method, pharmaceutical composition and use thereof” (Zhejiang Medicine Co., Ltd. Xinchang Pharmaceutical Factory, priority 2013, dated 2017):
pIC50: −log10 of the molar value. Several values for one entry are separate records, joined by “and”; a condition that tells them apart may be missing. Equal values may be shown once. Read-outs that look alike come from different tables or passages of the source.

Experiments:
[1] = test system: PC-3 cell Akt (Ser473) phosphorylation; test: Inhibition of phosphorylation level of PC-3 cell Akt (Ser473), Cisbio HTRF phospho Akt (Ser473) cell-based assay; design: species or system human; conditions: hEGF 100 ng/ml stimulation, 1st and 2nd test where printed
Procedure: The inhibitory activity of the compounds of present invention to the phosphorylation level of PC-3 cell Akt (Ser473) is studied by using Cisbio HTRF phospho Akt (Ser473) cell-based assay test kit.
Cell strain: PC-3 prostate cancer cells line (cell bank of Chinese Academy of Sciences) is cultured by using culture medium (F12K+10% FBS).
hEGF is prepared as stock solution of 100 ug/ml with 10 mM acetic acid, and the stock solution is diluted to 200 ng/ml with serum-free medium, added 50 ul to each well to be stimulated.
b) Preparation of Complete Lysate • 4×Lysis Buffer is diluted 4 times with ddH2O to prepare 1×Lysis Buffer. • 100×Blocking Reagent is diluted 100 times with 1×Lysis Buffer.
c) Preparation of Detection Liquid • 20×Anti-Phospho-Akt is diluted 20 times with Detection Buffer. • 20×Anti-Akt is diluted 20 times with Detection Buffer.
The compounds are diluted with DMSO, and the working concentration of compounds is 100 times of detection concentration.
Cells in logarithmic growth phase are collected, counted, and resuspended with complete culture medium;
The cell concentration is adjusted to appropriate concentration, and cell suspension is inoculated into 96 well plates at 50 μl per well;
Cells are incubated for more than 4 h in the 5% CO2 incubator at temperature of 37° C., relative humidity of 100%;
Cell plate is removed from the incubator. The cell suspension is aspirated gently, and 50 ul serum-free F12K medium is quickly added, then the cell plate is placed into the incubator to culture overnight.
The compounds are diluted in a linear gradient with DMSO.
0.5 ul compounds is added into the test well, mixed on oscillators, and incubated at room temperature for 2 hours.
Proportioned hEGF solution is added to test well at 50 μl per well, and the final concentration is 100 ng/ml. serum-free medium is added into The negative control well at 50 μl per well.
The solution is mixed on oscillator and incubated at room temperature for 2 hours.
The liquid in 96 well plates is aspirated by multichannel pipette or the supernatant is discarded gently. The proportioned complete lysate is added quickly at 50 μl per well.
The solution is mixed on oscillator and lysed at room temperature for 30 min.
16 μl cell lysate is transferred from the 96 well plates to white low volume 384 well plates, and the proportioned two pairs of detection antibody are added. The solution is mixed on oscillator, and incubated at room temperature for 4 hours to detect the readings.

PI3Kδ = biological target: T1, PI3Kδ (Homo sapiens, UniProt O00329); test: Inhibitory activity to PI3K δ, PI 3-Kinase (human) HTRF Assay kit; type: biochemical; conditions: for Inhibition rate % to PI3K delta: dihydrate di-methanesulfonate
T1 construct: purchased Millipore 14-604
T1 sequence (O00329 whole entry): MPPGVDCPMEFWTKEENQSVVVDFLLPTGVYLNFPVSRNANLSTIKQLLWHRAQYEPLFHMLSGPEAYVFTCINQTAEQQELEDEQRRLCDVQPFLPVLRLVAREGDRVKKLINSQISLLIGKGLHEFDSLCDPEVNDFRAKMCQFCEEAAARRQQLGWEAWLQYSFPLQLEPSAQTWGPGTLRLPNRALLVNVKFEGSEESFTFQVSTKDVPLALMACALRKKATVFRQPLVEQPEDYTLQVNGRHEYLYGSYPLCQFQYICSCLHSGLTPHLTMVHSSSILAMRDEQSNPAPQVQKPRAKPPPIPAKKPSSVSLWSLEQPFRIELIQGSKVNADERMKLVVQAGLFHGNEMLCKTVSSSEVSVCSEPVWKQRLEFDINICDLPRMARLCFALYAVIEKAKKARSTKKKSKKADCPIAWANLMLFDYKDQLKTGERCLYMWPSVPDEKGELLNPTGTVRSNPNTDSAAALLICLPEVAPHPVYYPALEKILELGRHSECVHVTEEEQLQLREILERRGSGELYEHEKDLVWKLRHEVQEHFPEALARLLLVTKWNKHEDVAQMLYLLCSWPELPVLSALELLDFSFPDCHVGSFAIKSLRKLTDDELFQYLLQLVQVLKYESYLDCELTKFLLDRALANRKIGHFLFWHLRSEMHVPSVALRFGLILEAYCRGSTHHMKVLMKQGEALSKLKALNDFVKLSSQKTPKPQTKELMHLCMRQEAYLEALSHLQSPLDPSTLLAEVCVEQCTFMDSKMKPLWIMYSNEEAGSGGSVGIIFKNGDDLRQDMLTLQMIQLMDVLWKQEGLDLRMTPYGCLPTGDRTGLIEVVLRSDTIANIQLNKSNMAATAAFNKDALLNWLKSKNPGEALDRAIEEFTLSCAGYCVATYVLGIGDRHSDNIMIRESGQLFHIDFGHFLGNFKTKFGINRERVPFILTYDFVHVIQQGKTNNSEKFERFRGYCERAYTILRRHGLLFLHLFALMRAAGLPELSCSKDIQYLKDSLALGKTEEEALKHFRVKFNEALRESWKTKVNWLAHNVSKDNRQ
T1 sequence (P27986 whole entry partner): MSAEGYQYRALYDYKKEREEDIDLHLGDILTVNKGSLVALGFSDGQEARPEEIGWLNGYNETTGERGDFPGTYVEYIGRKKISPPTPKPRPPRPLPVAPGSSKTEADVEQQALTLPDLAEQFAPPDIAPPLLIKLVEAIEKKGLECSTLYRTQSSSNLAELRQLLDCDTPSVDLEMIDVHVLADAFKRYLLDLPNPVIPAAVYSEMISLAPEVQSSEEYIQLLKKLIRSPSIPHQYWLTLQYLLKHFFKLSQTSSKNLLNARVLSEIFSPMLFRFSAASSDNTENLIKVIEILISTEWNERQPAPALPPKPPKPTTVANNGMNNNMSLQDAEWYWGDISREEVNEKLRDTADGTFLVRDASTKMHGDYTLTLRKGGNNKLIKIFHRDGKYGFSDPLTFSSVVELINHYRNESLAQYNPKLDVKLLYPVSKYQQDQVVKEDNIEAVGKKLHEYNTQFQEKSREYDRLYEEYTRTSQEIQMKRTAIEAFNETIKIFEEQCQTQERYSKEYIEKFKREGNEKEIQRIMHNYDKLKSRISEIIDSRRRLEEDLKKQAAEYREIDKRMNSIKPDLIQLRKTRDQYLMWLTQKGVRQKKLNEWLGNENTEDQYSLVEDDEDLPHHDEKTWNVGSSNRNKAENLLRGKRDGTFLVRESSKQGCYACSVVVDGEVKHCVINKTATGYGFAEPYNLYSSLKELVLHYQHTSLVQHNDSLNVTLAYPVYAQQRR
Method in brief: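 Inhibition of human PI3Kδ was assessed with the Millipore PI 3-Kinase (human) HTRF Assay kit. PI3Kδ was screened at 2 ng/well, diluted in 2×PIP2 operating fluid. Reactions were 20 μL and contained 100 μM ATP. Stop solution was Stop A and Stop B mixed 3:1. Detection solution was DM C, DM A and DM B mixed 18:1:1. Compounds were prepared from DMSO stocks, and percent inhibition was reported.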

PDGFR β enzyme = biological target: T2, PDGFR β enzyme (Homo sapiens, UniProt P09619); test: Inhibitory activity to PDGFR β enzyme, HTRF kinEASE TK kit; type: biochemical; conditions: read-out: Inhibition rate % (PDGFR β)
T2 construct: purchased Invitrogen P3082
T2 sequence (P09619 33-1106): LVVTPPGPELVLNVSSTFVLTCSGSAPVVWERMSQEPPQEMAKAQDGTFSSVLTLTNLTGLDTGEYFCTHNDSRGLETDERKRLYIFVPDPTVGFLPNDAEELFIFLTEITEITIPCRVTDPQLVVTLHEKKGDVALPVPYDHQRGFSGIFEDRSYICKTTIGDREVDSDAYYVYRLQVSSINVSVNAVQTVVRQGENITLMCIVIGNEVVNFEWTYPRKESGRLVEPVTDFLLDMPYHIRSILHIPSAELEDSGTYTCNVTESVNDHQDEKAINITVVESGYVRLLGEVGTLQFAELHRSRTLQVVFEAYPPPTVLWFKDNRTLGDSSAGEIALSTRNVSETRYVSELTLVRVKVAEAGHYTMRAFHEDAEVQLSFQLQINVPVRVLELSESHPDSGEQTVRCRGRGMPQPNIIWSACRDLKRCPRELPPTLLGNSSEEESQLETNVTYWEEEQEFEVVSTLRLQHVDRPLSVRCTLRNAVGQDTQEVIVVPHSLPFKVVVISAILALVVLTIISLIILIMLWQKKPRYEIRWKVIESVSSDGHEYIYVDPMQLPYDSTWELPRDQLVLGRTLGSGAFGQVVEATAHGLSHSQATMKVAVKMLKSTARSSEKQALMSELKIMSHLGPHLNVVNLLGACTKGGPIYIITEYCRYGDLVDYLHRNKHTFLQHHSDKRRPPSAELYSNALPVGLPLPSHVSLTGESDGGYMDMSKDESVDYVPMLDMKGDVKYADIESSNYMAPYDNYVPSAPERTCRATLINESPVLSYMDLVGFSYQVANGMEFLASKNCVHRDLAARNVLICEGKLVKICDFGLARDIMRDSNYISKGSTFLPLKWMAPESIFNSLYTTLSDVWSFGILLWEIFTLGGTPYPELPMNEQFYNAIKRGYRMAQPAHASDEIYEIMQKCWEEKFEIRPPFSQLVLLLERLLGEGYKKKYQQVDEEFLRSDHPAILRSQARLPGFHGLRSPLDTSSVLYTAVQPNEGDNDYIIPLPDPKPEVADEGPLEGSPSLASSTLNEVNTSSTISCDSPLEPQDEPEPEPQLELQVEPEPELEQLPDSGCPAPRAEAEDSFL
Method in brief: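 Recombinant human PDGFRβ phosphorylating TK-substrate in kinase buffer containing MgCl2, MnCl2, DTT and SEB, with ATP. Phosphorylation detected by HTRF using TK-Ab-Cryptate and Sa-XL665.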

[2] = test system: BT474 human breast cancer cell strain; test: Antitumor cell proliferation in vitro, CCK-8 detection kit, BT474; type: cell-based; conditions: BT-474 cells, 1st and 2nd test where printed
Procedure: (§1) The half inhibitory concentration IC50 of proliferation of three kinds of tumor cell strain (U87MG, PC-3, BT474) for 12 candidate compounds of the present invention is detected by CCK-8 detection kits.
BT474 human breast cancer cell strain (cell bank of Chinese Academy of Sciences) Reagents and materials:
(§2) The studied compounds are dissolved by DMSO to make the final concentration 10 mM.
(§3) • a) Collecting the cells in logarithmic phase, counting, and resuspending the cells with complete medium. • b) Adjusting the concentration of cells to a suitable concentration, inoculating in 96 well plates, each well is inoculated to 100 μl cell suspension.
(§4) c) incubating cells for 24 hours in a 5% CO2 incubator at temperature of 37° C., under the condition of 100% relative humidity.
(§5) a) The cells in logarithmic phase is collected, counted, resuspended with complete medium. The concentration of cells is adjusted to a suitable concentration (determined in accordance with the optimizable test results of cell density), and the cells is inoculated in 96 well plates, wherein each well is inoculated 100 μl cell suspension, Cells are incubated for 24 hours in 5% CO2 incubator at temperature of 37° C. under the condition of 100% relative humidity.
(§6) b) The test compounds are diluted to 500 μM with culture medium, then diluted in series eight times. […] as 25 μl/well. The final concentrations of the compounds are diluted from 100 μM to 0 μM, with 4 times dilution, and there are a total of 10 concentration points.
(§7) c) Cells are incubated for 72 hours in 5% CO2 incubator at temperature of 37° C. under the condition of 100% relative humidity.
(§8) d) The culture medium is aspirated and discarded, and complete medium containing 10% CCK-8 is incubated in a incubator at 37° C. for 2˜4 hours.
(§9) e) After shocking gently, the absorbance of the culture medium is measured at 450 nm wavelength on SpectraMax M5 Microplate Reader, with the absorbance at 650 nm as reference, to calculate the inhibition rate.

PI3 K γ = biological target: T3, PI3 K γ (Homo sapiens, UniProt P48736); test: Inhibitory activity to PI3K γ, PI 3-Kinase (human) HTRF Assay kit; type: biochemical; conditions: read-out: Inhibition rate % to PI3 K γ
T3 construct: purchased Biology, Medicilon
T3 sequence (P48736 whole entry): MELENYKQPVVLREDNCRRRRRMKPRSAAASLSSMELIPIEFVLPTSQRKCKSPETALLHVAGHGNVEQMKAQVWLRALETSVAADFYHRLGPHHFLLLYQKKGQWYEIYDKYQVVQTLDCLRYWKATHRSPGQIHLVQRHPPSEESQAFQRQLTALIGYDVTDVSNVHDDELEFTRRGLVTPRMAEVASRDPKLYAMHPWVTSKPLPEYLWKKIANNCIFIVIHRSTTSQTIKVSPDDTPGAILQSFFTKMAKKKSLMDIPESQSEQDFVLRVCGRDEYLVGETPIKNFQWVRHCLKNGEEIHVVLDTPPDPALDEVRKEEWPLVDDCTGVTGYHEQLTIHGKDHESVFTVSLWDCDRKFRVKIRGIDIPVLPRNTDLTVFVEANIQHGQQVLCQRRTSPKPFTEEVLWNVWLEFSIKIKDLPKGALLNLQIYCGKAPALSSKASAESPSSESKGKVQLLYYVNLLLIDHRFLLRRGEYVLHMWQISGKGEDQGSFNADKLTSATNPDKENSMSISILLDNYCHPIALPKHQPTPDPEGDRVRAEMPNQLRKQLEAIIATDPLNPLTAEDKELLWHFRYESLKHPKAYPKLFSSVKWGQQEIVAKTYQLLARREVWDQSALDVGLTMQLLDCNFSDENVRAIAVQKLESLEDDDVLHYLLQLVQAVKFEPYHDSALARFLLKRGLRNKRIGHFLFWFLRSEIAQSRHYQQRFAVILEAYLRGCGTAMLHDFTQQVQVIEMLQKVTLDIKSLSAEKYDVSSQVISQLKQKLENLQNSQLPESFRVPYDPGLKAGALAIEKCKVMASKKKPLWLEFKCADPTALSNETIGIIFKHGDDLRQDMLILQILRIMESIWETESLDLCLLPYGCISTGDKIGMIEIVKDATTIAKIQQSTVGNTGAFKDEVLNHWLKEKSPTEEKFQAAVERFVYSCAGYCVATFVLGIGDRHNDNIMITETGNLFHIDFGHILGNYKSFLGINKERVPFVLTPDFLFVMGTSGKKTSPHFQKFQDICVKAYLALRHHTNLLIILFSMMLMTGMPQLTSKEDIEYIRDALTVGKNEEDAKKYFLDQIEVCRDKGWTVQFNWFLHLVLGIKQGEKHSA
Method in brief: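 HTRF kinase assay with PI3Kγ at 80 ng/well, 10 μM PIP2 and 100 μM ATP (both final) in DTT-containing reaction buffer, 1% DMSO. Preliminary screen at 10 μM and 1 μM compound, followed by IC50 determination for selected compounds.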

[3] = test system: PC-3 human prostate cancer cell strain; test: Antitumor cell proliferation in vitro, CCK-8 detection kit, PC-3; type: cell-based; conditions: PC-3 cells, 1st and 2nd test where printed
Procedure: as §1
PC-3 human prostate cancer cell strain (cell bank of Chinese Academy of Sciences)
as §2, §3, §4, §5, §6, §7, §8, §9

[4] = test system: U87MG human glioblastoma Multiforme cell strain; test: Antitumor cell proliferation in vitro, CCK-8 detection kit, U87MG; type: cell-based; conditions: U-87 MG, 72 h, U-87MG cells, 1st and 2nd test where printed
Procedure: as §1
U87MG human glioblastoma Multiforme cell strain (cell bank of Chinese Academy of Sciences)
as §2, §3, §4, §5, §6, §7, §8, §9

PI3K α = biological target: T4, PI3K α (Homo sapiens, UniProt P42336); test: Inhibitory activity to PI3K α, PI 3-Kinase (human) HTRF Assay kit; type: biochemical; conditions: read-out: % Inhibition Rate to PI3K α
T4 construct: purchased Millipore 14-602
T4 sequence (P42336 whole entry): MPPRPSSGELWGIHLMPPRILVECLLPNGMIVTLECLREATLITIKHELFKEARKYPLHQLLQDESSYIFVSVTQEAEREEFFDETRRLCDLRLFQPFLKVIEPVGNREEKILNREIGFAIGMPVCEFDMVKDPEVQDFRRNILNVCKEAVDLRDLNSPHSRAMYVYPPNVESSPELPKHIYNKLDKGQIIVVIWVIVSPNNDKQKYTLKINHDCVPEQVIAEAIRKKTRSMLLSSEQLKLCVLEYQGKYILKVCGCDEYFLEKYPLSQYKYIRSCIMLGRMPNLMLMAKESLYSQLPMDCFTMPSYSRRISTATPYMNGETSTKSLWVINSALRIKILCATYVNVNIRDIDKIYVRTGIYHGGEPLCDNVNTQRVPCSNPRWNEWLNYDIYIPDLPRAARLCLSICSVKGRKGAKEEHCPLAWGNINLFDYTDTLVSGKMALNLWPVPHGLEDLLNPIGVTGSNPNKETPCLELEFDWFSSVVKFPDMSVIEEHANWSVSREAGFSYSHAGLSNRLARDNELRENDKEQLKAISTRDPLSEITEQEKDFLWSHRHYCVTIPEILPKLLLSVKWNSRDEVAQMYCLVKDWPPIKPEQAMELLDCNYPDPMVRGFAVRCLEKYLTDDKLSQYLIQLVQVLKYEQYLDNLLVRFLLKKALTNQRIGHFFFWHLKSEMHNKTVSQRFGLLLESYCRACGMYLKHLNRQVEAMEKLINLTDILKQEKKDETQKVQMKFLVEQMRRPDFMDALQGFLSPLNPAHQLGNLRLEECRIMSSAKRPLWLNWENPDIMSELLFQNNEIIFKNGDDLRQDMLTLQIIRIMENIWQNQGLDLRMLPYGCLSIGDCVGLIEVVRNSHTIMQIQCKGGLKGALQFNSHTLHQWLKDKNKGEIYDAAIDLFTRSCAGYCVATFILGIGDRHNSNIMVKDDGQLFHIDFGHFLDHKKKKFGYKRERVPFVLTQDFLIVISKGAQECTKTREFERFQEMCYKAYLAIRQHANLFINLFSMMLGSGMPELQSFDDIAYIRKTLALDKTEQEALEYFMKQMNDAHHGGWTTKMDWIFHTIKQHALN
T4 sequence (P27986 whole entry partner): as the sequence (P27986 whole entry partner) above
Method in brief: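 HTRF assay using human PI3Kα at 8 ng/well, 100 μM ATP and PIP2 (2× working stock 20 μM) in 20 μL reaction containing 1% DMSO. Screened at 10 μM and 1 μM for percent inhibition, with selected compounds then taken to IC50 determination.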

[5] = 1 μM (Table 7), read-out: Inhibition rate % to PI3Kδ
[6] = 10 μM (Table 7), read-out: Inhibition rate % to PI3Kδ
[7] = 0.4 μM (Table 8), read-out: Inhibition rate % to PI3K delta
[8] = 2 μM (Table 8), read-out: Inhibition rate % to PI3K delta
[9] = 10 μM (Table 8), read-out: Inhibition rate % to PI3K delta

SMILES | inhibition at 1 µM (PI3Kδ; [5]) | inhibition at 10 µM (PI3Kδ; [6]) | pIC50 ([3]; Homo sapiens, PC-3, 72 h) | IC50 ([1]; Homo sapiens, PC-3, PC-3 cells) | pIC50 [4] | inhibition at 1 µM (PI3K α) | inhibition at 10 µM (PI3K α) | pIC50 ([2]; Homo sapiens, BT-474, 72 h) | other results
CC(C)Oc1nc(Nc2ccc3nccc(-c4ccccc4)c3c2)nc2[nH]cnc12 [MED1007-51, N-(6-isopropoxy-9H-purine-2-yl)-4-(phenyl-1-yl) quinoline-6-amine] | 39.6% | 75.5% |  |  |  |  |  |  | IC50 ([1]; PC-3 cells): 1.14 nM and 0.683 nM; inhibition at 1 µM (PDGFR β enzyme): 11.9%; inhibition at 10 µM (PDGFR β enzyme): 33.6%; pIC50 ([2]; 72 hours): 7.09 and 6.94; inhibition at 1 µM (PI3 K γ): 1.16%; inhibition at 10 µM (PI3 K γ): 56.2%
CC(C)Nc1nc(Nc2ccc3nccc(-c4ccccc4)c3c2)nc2[nH]cnc12 [MED1007-101, N6-isopropyl-N2-(4-phenylquinoline-6-yl)-9H-purine-2,6-diamine] | 75.7% | 95.6% | 6.21 | 67 nM | 5.07 | 49.5% | 126% | 6.36 | 
CC(C)Oc1nc(Nc2ccc3ncccc3c2)nc2[nH]cnc12 [MED1007-104, N-(6-isopropoxy-9H-purine-2-yl) quinoline-6-amine] |  |  | 5.77 |  | 4.74 | 60.3% | 106% | 5.87 | Inhibition rate % to PI3Kδ (PI3Kδ; 1 μM (Table 7), 1 µM): 57.14%; Inhibition rate % to PI3Kδ (PI3Kδ; 10 μM (Table 7), 10 µM): 85.86%
CCC(CC)Oc1nc(Nc2ccc3nccc(-c4ccccc4)c3c2)nc2[nH]cnc12 [MED1007-105, N-(6-(pentyl-3-yloxyl)-9H-purine-2-yl)-4-phenyl quinoline-6-amine] | 74.2% | 105% | 5.99 |  | 4.39 | 60.4% | 111% | 6.38 | 
CC(C)Oc1nc(Nc2ccc3nccc(-c4ccccc4)c3c2)nc2[nH]cnc12 [MED1007-108, N-(6-isopropoxy-9H-purine-2-yl)-4-(phenyl-1-yl) quinoline-6-amine-methanesulfonate] |  |  | 7.15 | 3.83 nM |  |  |  | 7.20 | pIC50 ([3]; 72 hours): 6.95; IC50 ([1]; PC-3 cells): 6.51 nM; inhibition at 0.4 µM (PI3Kδ; [7]): 40.5%; inhibition at 2 µM (PI3Kδ; [8]): 78.6%; inhibition at 10 µM (PI3Kδ; [9]): 89%; pIC50 ([2]; 72 hours): 7.46
c1ccc(-c2ccnc3ccc(Nc4nc(N5CCOCC5)c5nc[nH]c5n4)cc23)cc1 [MED1007-109S, N-(6-morpholine-9H-purine-2-yl)-4-phenyl quinoline-6-amine dihydrate di-methanesulfonate] |  |  | 6.16 | 116 nM | 4.74 |  |  | 6.21 | Inhibition rate % to PI3K delta (PI3Kδ; 0.4 μM (Table 8), 0.4 µM): 30.22%; Inhibition rate % to PI3K delta (PI3Kδ; 2 μM (Table 8), 2 µM): 57.34%; Inhibition rate % to PI3K delta (PI3Kδ; 10 μM (Table 8), 10 µM): 94.36%
c1cc(C2CC2)c2cc(Nc3nc(NC4CC4)c4nc[nH]c4n3)ccc2n1 [MED1007-115, N6-cyclopropyl-N2-(4-cyclopropylquinoline-6-yl)-9H-purine-2,6-diamine dihydrate di-methanesulfonate] |  |  | 5.80 | 260 nM | 5.13 |  |  | 5.71 | inhibition at 0.4 µM (PI3Kδ; [7]): 36.8%; inhibition at 2 µM (PI3Kδ; [8]): 60.2%; inhibition at 10 µM (PI3Kδ; [9]): 94.6%
c1cnc2ccc(Nc3nc(NC4CC4)c4nc[nH]c4n3)cc2c1 [XC-302, reference compound] |  |  | 4.83 |  | 4.75 |  |  | 5.23 | inhibition at 1 µM (PDGFR β enzyme; 1 μM): 51.1%; inhibition at 10 µM (PDGFR β enzyme; 10 μM): 96.5%; inhibition at 1 µM (PI3 K γ): 18.3%; inhibition at 10 µM (PI3 K γ): 49.3%
